Results published in patent publication US11090292B2, “Compositions and methods of use of an inappetance-controlling compound” (Aratana Therapeutics, Inc., priority 2012, dated 2021).

Legend:
Format in all cases: in vivo, Beagle dogs
[1] = Example 5: capromorelin concentration in serum
Method: (§1) In order to further refine the dosing regimen that would provide an appropriate blood profile of capromorelin and desired results from the perspective of increased food intake and weight gain, an additional series of experiments were conducted. In these experiments, twenty-four adult (male and female) Beagle dogs weighing approximately 9 to 13 kilograms were randomly divided into four groups. Group 1 received a placebo formulation, without any active compound, two times per day; Group 2 received a composition comprising 3 mg/kg of body weight of capromorelin one time per day; Group 3 received a composition comprising 4.5 mg/kg of body weight of capromorelin one time per day; and Group 4 received a composition comprising 3 mg/kg of body weight of capromorelin two times per day.
In particular, on the first day of dosing, Day 1, through the last day of dosing, Day 7, the compositions were orally administered (i.e., using a syringe) to the animals in a flavored formulation of the following composition: […]
In these experiments, the animals were orally administered the flavored formulation at approximately 8:00 AM and, for Group 4 only, again at 6:00 PM. The animals were fed at 10:00 AM beginning seven days prior to Day 1 and continuing for the duration of the study. The animals were offered twice the normal amount of food. Approximately two hours after the food offering, the remainder was removed and weighed to assess food intake. This restricted feeding regime was started at Day −7 to allow the animals to transition to a normal feed intake before the study was initiated. Food consumption was calculated and recorded on Days −7 through Day 7. Baseline food consumption was calculated for each individual dog as the average number of grams of food consumed on Days −3, −2, and −1. The study period food consumption was calculated for each individual dog as the average of Days 1 through 7. Body weights were collected on Days −1, 3, and 7. […]

[2] = tested on: cortisol; assay: Example 5: serum cortisol; conditions: Groups 2-4; mitigated by Day 4, further reduced by Day 7
Method: as §1, with “day. […]” for “day.”
(§2) In these experiments, the animals were orally administered the flavored formulation at approximately 8:00 AM and, for Group 4 only, again at 6:00 PM. […] Food consumption was calculated and recorded on Days −7 through Day 7. Baseline food consumption was calculated for each individual dog as the average number of grams of food consumed on Days −3, −2, and −1. The study period food consumption was calculated for each individual dog as the average of Days 1 through 7. […]

[3] = Example 4 seven-day study once vs twice daily 3 mg/kg: food consumption and body weight
Method: A controlled, seven-day study was performed to assess the impact of different capromorelin-dosing regimens on the production of IGF-1, GH, and cortisol. The different capromorelin-dosing regimens were also assessed for the impact on food intake and changes in body mass.
[…] were divided into one of three treatment groups, with one negative control group and two active treatment groups. Each of the three treatment groups included three males and three females. The first group received a placebo formulation (i.e., deionized water) twice per day, via oral gavage. The second group received a once-daily dose of the capromorelin composition at a concentration of 3 mg/kg, via oral gavage. The third group received a twice-daily dose of the capromorelin composition at a concentration of 3 mg/kg, via oral gavage.
During the ten day study period, on an at least once-daily basis, each of the dogs was monitored for clinical observations, mortality, moribundity, body mass, acceptability/palatability, and food consumption. Serum samples were taken to measure capromorelin concentration, GH concentration, IGF-1 concentration, and cortisol concentration. Serum samples were taken on days 1, 2, 4, and 7 at −15 minutes (pre-dose), immediately prior to dosing (0 minutes) and 30, 45, 60, 90, 120, 240, 360, and/or 480 minutes post dosing. […]

[4] = tested on: growth hormone; assay: Example 5: serum growth hormone; conditions: Groups 2-4; mitigated by Day 4, further reduced by Day 7
Method: as §1, with “day. […]” for “day.”
as §2

[5] = tested on: insulin-like growth factor 1 (IGF-1); assay: Example 1: serum IGF-1 concentration
Method: A controlled, seven-day study was performed to assess the impact of different capromorelin-dosing regimens on the production of insulin-like growth factor 1 (hereinafter “IGF-1”), growth hormone (hereinafter “GH”), and cortisol. The different capromorelin-dosing regimens were also assessed for the impact on food intake and changes in body mass.
Eighteen adult non-naïve Beagle dogs (nine males and nine females) were divided into one of three treatment groups. Each of the three treatment groups included three males and three females. Group A, which was the control group, was dosed twice per day, via oral gavage, with a vehicle (deionized water alone) and was used as a baseline data point for comparison against the active treatment regimens. Group B comprised an active treatment group that received two treatments per day, via oral gavage, with a capromorelin-containing composition with a concentration of 3 mg/kg capromorelin per treatment. Finally, Group C comprised an active treatment group that received one treatment per day, via oral gavage, with a capromorelin-containing composition with a concentration of 6 mg/kg capromorelin per treatment.
During the ten day study period, on an at least once-daily basis, each of the dogs was monitored for clinical observations, mortality, morbidity, body mass, and food consumption. […]

CN1N=C2CCN(C(=O)[C@@H](COCc3ccccc3)NC(=O)C(C)(C)N)C[C@@]2(Cc2ccccc2)C1=O.O=C(O)C(O)C(O)C(=O)O [capromorelin]
serum capromorelin by 8 hours ([1]; Days 1 and 7, Groups 2-4): back to baseline levels | time post administration of initial spike of serum capromorelin ([1]; Days 1 and 7, Groups 2-4): 30 min | capromorelin accumulation ([1]; seven days of dosing): no evidence of capromorelin accumulation | cortisol in the serum [2]: initial increase in cortisol in the serum on Day 1 | weight loss over the course of the experiment ([3]; once-daily 3 mg/kg oral gavage): did not experience weight loss or did not experience as great a weight loss as the negative control | average more food consumed daily relative to the negative control ([3]; once-daily and twice-daily 3 mg/kg oral gavage, 7 days): approximately 34% | growth hormone in the serum [4]: increase in growth hormone in the serum on Day 1 | serum IGF-1 levels versus deionized water three days after terminating treatment ([5]; Day 10): not significantly different | serum IGF-1 levels relative to deionized water ([5]; days 2, 4 and 7 of treatment, both doses): remained consistently higher
